The text below walks through data of publication PMC4512654 (Analytical biochemistry, 2014).

For assay [1], the target named is T1, Activated Factor XIII (FXIIIa) (Homo sapiens, UniProt P00488).
T1 sequence (P00488 39-732 limits assumed): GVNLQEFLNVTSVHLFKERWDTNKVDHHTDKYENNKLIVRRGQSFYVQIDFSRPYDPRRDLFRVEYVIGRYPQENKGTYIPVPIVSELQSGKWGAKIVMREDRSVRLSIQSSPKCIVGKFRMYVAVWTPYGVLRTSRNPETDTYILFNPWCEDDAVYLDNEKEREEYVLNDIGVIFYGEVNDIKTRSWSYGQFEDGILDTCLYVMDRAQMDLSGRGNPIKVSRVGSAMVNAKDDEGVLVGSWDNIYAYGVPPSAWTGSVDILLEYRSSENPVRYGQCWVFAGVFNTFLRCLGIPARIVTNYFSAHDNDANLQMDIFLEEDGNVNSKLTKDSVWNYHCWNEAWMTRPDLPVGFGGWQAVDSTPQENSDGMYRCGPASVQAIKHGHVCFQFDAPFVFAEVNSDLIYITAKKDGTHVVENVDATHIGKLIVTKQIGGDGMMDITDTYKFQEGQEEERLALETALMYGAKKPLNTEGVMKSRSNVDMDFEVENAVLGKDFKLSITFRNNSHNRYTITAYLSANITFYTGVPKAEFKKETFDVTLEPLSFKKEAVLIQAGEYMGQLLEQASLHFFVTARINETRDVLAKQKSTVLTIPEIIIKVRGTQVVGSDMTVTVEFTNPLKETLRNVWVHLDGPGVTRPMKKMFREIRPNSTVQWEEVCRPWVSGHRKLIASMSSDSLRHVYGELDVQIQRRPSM
Type of assay: biochemical.

The next assay deals with FXIIIa. The settings on record: coupled uv/vis assay, derived earlier; cited from earlier work.

“SGDQRQVDLIPKKAT [S. Aureus Fnb A (100–114)]”: the “Km better than S. Aureus Fnb A (100–110)” value in assay [1] (P < 0.05) was “almost two-fold better”.
By Km is commonly meant the concentration of substrate that gives half-maximal velocity. Take NQEKVSPLTLLKLGN [α2AP (1–15) Q4K]: the Km with FXIIIa was 426 ± 93 µM.
As for FQSGQVLAALPRTSR [TAFI (1–15)], the “Km weaker than α2AP (1–15) K12R and S. Aureus Fnb A (100–114)” value in assay [1] is given as “more than 5 fold”.
Regarding NQEQVSPLTLLKLGN [α2AP (1–15)], the Km in the assay with FXIIIa was 459 ± 50 µM.
